The target in the experiment is T1, Human Factor D (Homo sapiens, UniProt P00746).
T1 construct: purified from human serum; purchased Complement Technology, Inc; host or cells: human serum (natural protein, not recombinant)
The experiment is described as follows: Human Factor D Assay. The format is biochemical. The following applies: Factor D 80 nM, substrate Z-L-Lys-SBzl, read-out: IC50. An outline of the steps:
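Serum-purified human factor D (80 nM final) was preincubated with compound for 5 min at room temperature in 50 mM Tris, 1 M NaCl, pH 7.5. Z-L-Lys-SBzl and DTNB were added at 100 μM each, and A405 was read every 30 s for 30 min. IC50 came from nonlinear regression of reaction rates versus compound concentration.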

Read-outs that look alike come from different tables or passages of the source.

T1 sequence (P00746 26-253): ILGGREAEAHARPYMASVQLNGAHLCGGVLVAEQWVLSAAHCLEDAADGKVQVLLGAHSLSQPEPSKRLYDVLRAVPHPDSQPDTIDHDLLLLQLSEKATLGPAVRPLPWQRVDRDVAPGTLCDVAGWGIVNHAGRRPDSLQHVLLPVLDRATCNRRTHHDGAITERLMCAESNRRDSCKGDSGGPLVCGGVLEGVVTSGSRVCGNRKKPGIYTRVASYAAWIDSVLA

Take `CC(C)(C)C(=O)Nc1nc2c(s1)c(C(N)=O)nn2CC(=O)N1C[C@H](F)C[C@H]1C(=O)Nc1cccc(-c2ccccc2Cl)c1F` [Compound 55, 1-(2-((2S,4R)-2-(2′-chloro-2-fluorobiphenyl-3-ylcarbamoyl)-4-fluoropyrrolidin-1-yl)-2-oxoethyl)-5-pivalamido-1H-pyrazolo[3,4-d]thiazole-3-carboxamide]: the IC50 (in general, the concentration that gives 50% inhibition) (Table 2) was less than 1000 nM.

On to `NC(=O)c1nn(CC(=O)N2C[C@H](F)C[C@H]2C(=O)Nc2cccc(-c3ncccc3Cl)c2F)c2ccc(NC(=O)N3CCCC(F)(F)C3)cc12` [Compound 29, 1-(2-((2S,4R)-2-(3-(3-chloropyridin-2-yl)-2-fluorophenylcarbamoyl)-4-fluoropyrrolidin-1-yl)-2-oxoethyl)-5-(3,3-difluoropiperidine-1-carboxamido)-1H-indazole-3-carboxamide], for which the IC50 (Table 1) is less than 1000 nM.

Turning to `CC(=O)c1cn(CC(=O)N2C[C@H](F)C[C@H]2C(=O)NCc2cccc(Cl)c2F)c2ccc(NC(=O)N3Cc4cncnc4C3)cc12` [Compound 22, N-(3-acetyl-1-(2-((2S,4R)-2-(3-chloro-2-fluorobenzylcarbamoyl)-4-fluoropyrrolidin-1-yl)-2-oxoethyl)-1H-indol-5-yl)-5H-pyrrolo[3,4-d]pyrimidine-6(7H)-carboxamide], where the note is “Table 1”, the IC50 was less than 1000 nM.

Regarding `CC(=O)c1cn(CC(=O)N2C[C@H](F)C[C@H]2C(=O)Nc2cccc(-c3ccccc3Cl)c2F)c2ccc(NC(=O)C3CCC(F)(F)C3)cc12` (stereo partly drawn) [Compound 35, (2S,4R)-1-(2-(3-acetyl-5-(3,3-difluorocyclopentane-carboxamido)-1H-indol-1-yl)acetyl)-N-(2′-chloro-2-fluorobiphenyl-3-yl)-4-fluoropyrrolidine-2-carboxamide], the IC50 (Table 1) was less than 1000 nM.

`CC(=O)c1cn(CC(=O)N2C[C@H](F)C[C@H]2C(=O)NCc2cccc(Cl)c2F)c2ccc(NC(=O)NC3CC3)cc12` [Compound 1, (2S,4R)-1-(2-(3-acetyl-5-(3-cyclopropylureido)-1H-indol-1-yl)acetyl)-N-(3-chloro-2-fluorobenzyl)-4-fluoropyrrolidine-2-carboxamide]: the IC50 (Table 1) is less than 1000 nM.

For the molecule `CC(=O)c1cn(CC(=O)N2C[C@H](F)C[C@H]2C(=O)NCc2cccc(Cl)c2F)c2cc(C(=O)NCC3CCNC3)ccc12` (stereo partly drawn) [Compound 49, 3-acetyl-1-(2-((2S,4R)-2-(3-chloro-2-fluorobenzylcarbamoyl)-4-fluoropyrrolildin-1-yl)-2-oxoethyl)-N-(pyrrolidin-3-ylmethyl)-1H-indole-6-carboxamide], where the note is “Table 1”, the IC50 was less than 1000 nM.

Take `CC(=O)c1cn(CC(=O)N2C[C@H](F)C[C@H]2C(=O)NCc2cccc(Cl)c2F)c2cc(C(=O)NS(=O)(=O)c3ccccc3)ccc12` [Compound 53, 3-acetyl-1-(2-((2S,4R)-2-(3-chloro-2-fluorobenzylcarbamoyl)-4-fluoropyrrolidin-1-yl)-2-oxoethyl)-N-(phenylsulfonyl)-1H-indole-6-carboxamide]: the IC50 (Table 1) was less than 1000 nM.
